One data set concerns the target GLP-1R (Homo sapiens, UniProt P43220). Briefly: GLP-1 receptor-mediated cAMP induction, luciferase reporter gene antagonism assay. Type of data set: cell-based. The arrangement: host or cells: HEK 293. To be noted: antagonism of 0.05 nM GLP-1, HEK 293 cells. The protocol: GLP-1 Receptor-Mediated cAMP Induction The ability of peptides to stimulate or block cAMP induction at the GLP-1 receptor was examined by a luciferase-based reporter gene assay. Cotransfection of HEK 293 cells with the human GLP-1 receptor (Open Biosystems) and a cAMPinducible (cAMPresponsive element) luciferase gene constituted the cellular construct where receptor activation could be measured. Bioassays were performed by first serum depriving the cells for 16 h in 0.25% bovine growth serum (HyClone)-supplemented Dulbecco's modified Eagle's medium (Invitrogen) and then adding serial dilutions of the peptides over the appropriate concentration ranges in 96-well poly-D-lysine-coated plates (BD Biosciences). For antagonism assays, a constant concentration of GLP-1 (0.05 nM) was added to the assay plate after the diluted peptides. Incubation continued for 5 h at 37° C., 5% CO2 and was followed by the addition of an equivalent volume (100 μL) of LucLite luminescence substrate reagent (Perkin-Elmer). MicroBeta 1450 liquid scintillation counting (Perkin-Elmer) quantified the luminescence signal in counts per second (cps) after shaking the plate at 600 rpm for 3 min. Data was plotted using Origin software (OriginLab) and the effective concentration 50 (EC50) or inhibitory concentration 50 (IC50) was determined by sigmoidal fitting. Potency was determined by comparative analysis of relative EC50 or IC50 values. Each experiment was repeated at least three times with each sample assayed in duplicate.
Background: Reporter assays use an easily measured gene product as a stand-in for the process of interest.

The next data set in a line: Solubility in buffer. The conditions noted are these: 80 mM ammonium bicarbonate buffer, 80 mM AmBicarb pH7.7.
The mark [1] stands for this setting: Table 2, C16 linker variants of 9-40amide Jant4 K40[X], read-out: Biactivity IC50.
Setting [2] is: pH 7.7, Solubility [mg/mL] 80 mM AmBicarb pH7.7, Table 2.

What is called solubility is the dissolved amount per volume that the medium holds.

SMILES strings stand for the structures. Like-named read-outs stand apart in the source and are kept apart here. Starred links: 1 amine or outer side, 2 acyl side, 3 side chain; linkers in the order of their positions; H or OH if unused. Non-standard residues stand in square brackets, D forms with d. Residues, ends and D or L forms follow the SMILES beside them. Groups on a side chain read outwards from the residue. *: point of attachment. C18 diacid = O=C(O)CCCCCCCCCCCCCCCCC(=O)*; γGlu = O=C(O)[C@H](CCC(=O)[*:2])N[*:1]; Palmitoyl = CCCCCCCCCCCCCCCC(=O)*; AEEA = NCCOCCOCC(=O)O

GLP-1R, sequence (P43220 24-463): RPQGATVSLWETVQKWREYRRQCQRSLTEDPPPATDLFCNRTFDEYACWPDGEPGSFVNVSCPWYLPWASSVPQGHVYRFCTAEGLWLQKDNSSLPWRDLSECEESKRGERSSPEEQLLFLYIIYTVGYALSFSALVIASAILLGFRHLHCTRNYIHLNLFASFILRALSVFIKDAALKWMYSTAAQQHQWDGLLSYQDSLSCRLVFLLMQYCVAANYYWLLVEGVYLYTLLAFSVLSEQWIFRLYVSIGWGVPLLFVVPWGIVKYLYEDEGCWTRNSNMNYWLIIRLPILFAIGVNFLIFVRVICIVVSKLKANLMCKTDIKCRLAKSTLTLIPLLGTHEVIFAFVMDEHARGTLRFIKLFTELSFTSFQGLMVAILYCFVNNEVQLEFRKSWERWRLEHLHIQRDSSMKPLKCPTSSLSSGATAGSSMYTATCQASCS

Consider `CC[C@H](C)[C@H](NC(=O)[C@H](Cc1ccccc1)NC(=O)[C@H](CCC(=O)O)NC(=O)[C@H](CCCNC(=N)N)NC(=O)[C@@H](NC(=O)[C@H](C)NC(=O)[C@H](CCC(N)=O)NC(=O)[C@H](CCC(=O)O)NC(=O)[C@H](CCC(=O)O)NC(=O)[C@H](CC(C)C)NC(=O)[C@H](Cc1ccc(O)cc1)NC(=O)[C@H](CO)NC(=O)[C@H](CO)NC(=O)[C@@H](NC(=O)[C@@H](N)CC(=O)O)C(C)C)C(C)C)C(=O)N[C@@H](C)C(=O)N[C@@H](Cc1c[nH]c2ccccc12)C(=O)N[C@@H](CC(C)C)C(=O)N[C@H](C(=O)N[C@@H](CCCCN)C(=O)NCC(=O)NCC(=O)N1CCC[C@H]1C(=O)N[C@@H](CO)C(=O)N[C@@H](CO)C(=O)NCC(=O)N[C@@H](C)C(=O)N1CCC[C@H]1C(=O)N1CCC[C@H]1C(=O)N1CCC[C@H]1C(=O)N[C@@H](CO)C(=O)N[C@@H](CCCCNC(=O)CC[C@H](NC(=O)CC[C@H](NC(=O)CC[C@H](NC(=O)CC[C@H](NC(=O)CC[C@H](NC(=O)CC[C@H](NC(=O)CCCCCCCCCCCCCCCCC(=O)O)C(=O)O)C(=O)O)C(=O)O)C(=O)O)C(=O)O)C(=O)O)C(N)=O)C(C)C` [compound 66] (H-DVSSYLEEQAVREFIAWLVKGGPSSGAPPPSK([γGlu-γGlu-γGlu-γGlu-γGlu-γGlu-C18 diacid])-NH2; N-terminus assumed), for which, at GLP-1R (setting [1]), the IC50 amounted to 1460 nM. In the data set “Solubility in buffer” (setting [2]), the solubility is > 25 mg/mL.
For `CC[C@H](C)[C@H](NC(=O)[C@H](Cc1ccccc1)NC(=O)[C@H](CCC(=O)O)NC(=O)[C@H](CCCNC(=N)N)NC(=O)[C@@H](NC(=O)[C@H](C)NC(=O)[C@H](CCC(N)=O)NC(=O)[C@H](CCC(=O)O)NC(=O)[C@H](CCC(=O)O)NC(=O)[C@H](CC(C)C)NC(=O)[C@H](Cc1ccc(O)cc1)NC(=O)[C@H](CO)NC(=O)[C@H](CO)NC(=O)[C@@H](NC(=O)[C@@H](N)CC(=O)O)C(C)C)C(C)C)C(=O)N[C@@H](C)C(=O)N[C@@H](Cc1c[nH]c2ccccc12)C(=O)N[C@@H](CC(C)C)C(=O)N[C@H](C(=O)N[C@@H](CCCCN)C(=O)NCC(=O)NCC(=O)N1CCC[C@H]1C(=O)N[C@@H](CO)C(=O)N[C@@H](CO)C(=O)NCC(=O)N[C@@H](C)C(=O)N1CCC[C@H]1C(=O)N1CCC[C@H]1C(=O)N1CCC[C@H]1C(=O)N[C@@H](CO)C(=O)N[C@@H](CCCCNC(=O)CC[C@H](NC(=O)CC[C@H](NC(=O)CC[C@H](NC(=O)CC[C@H](NC(=O)CCCCCCCCCCCCCCCCC(=O)O)C(=O)O)C(=O)O)C(=O)O)C(=O)O)C(N)=O)C(C)C` [compound 65] (H-DVSSYLEEQAVREFIAWLVKGGPSSGAPPPSK([γGlu-γGlu-γGlu-γGlu-C18 diacid])-NH2; N-terminus assumed) the same measures were 1070 nM and > 25 mg/mL.
On to `CCCCCCCCCCCCCCCC(=O)NCCCC[C@H](NC(=O)[C@H](CO)NC(=O)[C@@H]1CCCN1C(=O)[C@@H]1CCCN1C(=O)[C@@H]1CCCN1C(=O)[C@H](C)NC(=O)CNC(=O)[C@H](CO)NC(=O)[C@H](CO)NC(=O)[C@@H]1CCCN1C(=O)CNC(=O)CNC(=O)[C@H](CCCCN)NC(=O)[C@@H](NC(=O)[C@H](CC(C)C)NC(=O)[C@H](Cc1c[nH]c2ccccc12)NC(=O)[C@H](C)NC(=O)[C@H](NC(=O)[C@H](Cc1ccccc1)NC(=O)[C@H](CCC(=O)O)NC(=O)[C@H](CCCNC(=N)N)NC(=O)[C@@H](NC(=O)[C@H](C)NC(=O)[C@H](CCC(N)=O)NC(=O)[C@H](CCC(=O)O)NC(=O)[C@H](CCC(=O)O)NC(=O)[C@H](CC(C)C)NC(=O)[C@H](Cc1ccc(O)cc1)NC(=O)[C@H](CO)NC(=O)[C@H](CO)NC(=O)[C@@H](NC(=O)[C@@H](N)CC(=O)O)C(C)C)C(C)C)[C@H](C)CC)C(C)C)C(N)=O` [compound 51] (H-DVSSYLEEQAVREF[dI]AWLVKGGPSSGAPPPSK(Palmitoyl)-NH2; N-terminus assumed), for which the IC50 at GLP-1R (Table 5, d-AA variants of 9-40am Jant4 K40[C16], read-out: Bioactivity KC50) came to 31 nM. For the same molecule, the solubility in the data set “Solubility in buffer” (pH 7.7, Solubility [mg/mL] 80 mM/AmBicarb pH7.7, Table 5) is > 20 mg/mL.
For the molecule `CCCCCCCCCCCCCCCC(=O)NCCOCCOCC(=O)N[C@@H](CCC(=O)NCCOCCOCC(=O)N[C@@H](CCC(=O)NCCCC[C@H](NC(=O)[C@H](CO)NC(=O)[C@@H]1CCCN1C(=O)[C@@H]1CCCN1C(=O)[C@@H]1CCCN1C(=O)[C@H](C)NC(=O)CNC(=O)[C@H](CO)NC(=O)[C@H](CO)NC(=O)[C@@H]1CCCN1C(=O)CNC(=O)CNC(=O)[C@H](CCCCN)NC(=O)[C@@H](NC(=O)[C@H](CC(C)C)NC(=O)[C@H](Cc1c[nH]c2ccccc12)NC(=O)[C@H](C)NC(=O)[C@@H](NC(=O)[C@H](Cc1ccccc1)NC(=O)[C@H](CCC(=O)O)NC(=O)[C@H](CCCNC(=N)N)NC(=O)[C@@H](NC(=O)[C@H](C)NC(=O)[C@H](CCC(N)=O)NC(=O)[C@H](CCC(=O)O)NC(=O)[C@H](CCC(=O)O)NC(=O)[C@H](CC(C)C)NC(=O)[C@H](Cc1ccc(O)cc1)NC(=O)[C@H](CO)NC(=O)[C@H](CO)NC(=O)[C@@H](NC(=O)[C@@H](N)CC(=O)O)C(C)C)C(C)C)[C@@H](C)CC)C(C)C)C(N)=O)C(=O)O)C(=O)O` [compound 62] (H-DVSSYLEEQAVREFIAWLVKGGPSSGAPPPSK([γGlu-AEEA-γGlu-AEEA-Palmitoyl])-NH2; N-terminus assumed), the IC50 on GLP-1R (setting [1]) came out at 7 nM. Moreover, in “Solubility in buffer” (setting [2]), the solubility was > 25 mg/mL.
Consider `CCCCCCCCCCCCCCCC(=O)N[C@@H](CCC(=O)N[C@@H](CCC(=O)NCCCC[C@H](NC(=O)[C@H](CO)NC(=O)[C@@H]1CCCN1C(=O)[C@@H]1CCCN1C(=O)[C@@H]1CCCN1C(=O)[C@H](C)NC(=O)CNC(=O)[C@H](CO)NC(=O)[C@H](CO)NC(=O)[C@@H]1CCCN1C(=O)CNC(=O)CNC(=O)[C@H](CCCCN)NC(=O)[C@@H](NC(=O)[C@H](CC(C)C)NC(=O)[C@H](Cc1c[nH]c2ccccc12)NC(=O)[C@H](C)NC(=O)[C@@H](NC(=O)[C@H](Cc1ccccc1)NC(=O)[C@H](CCC(=O)O)NC(=O)[C@H](CCCNC(=N)N)NC(=O)[C@@H](NC(=O)[C@H](C)NC(=O)[C@H](CCC(N)=O)NC(=O)[C@H](CCC(=O)O)NC(=O)[C@H](CCC(=O)O)NC(=O)[C@H](CC(C)C)NC(=O)[C@H](Cc1ccc(O)cc1)NC(=O)[C@H](CO)NC(=O)[C@H](CO)NC(=O)[C@@H](NC(=O)[C@@H](N)CC(=O)O)C(C)C)C(C)C)[C@@H](C)CC)C(C)C)C(N)=O)C(=O)O)C(=O)O` [compound 53] (H-DVSSYLEEQAVREFIAWLVKGGPSSGAPPPSK([γGlu-γGlu-Palmitoyl])-NH2), for which the IC50 at GLP-1R (setting [1]) stood at 13 nM. The solubility in “Solubility in buffer” (setting [2]) is > 20 mg/mL.
As for `CCCCCCCCCCCCCCCC(=O)NCCOCCOCC(=O)N[C@@H](CCC(=O)N[C@@H](CCC(=O)NCCOCCOCC(=O)NCCCC[C@H](NC(=O)[C@H](CO)NC(=O)[C@@H]1CCCN1C(=O)[C@@H]1CCCN1C(=O)[C@@H]1CCCN1C(=O)[C@H](C)NC(=O)CNC(=O)[C@H](CO)NC(=O)[C@H](CO)NC(=O)[C@@H]1CCCN1C(=O)CNC(=O)CNC(=O)[C@H](CCCCN)NC(=O)[C@@H](NC(=O)[C@H](CC(C)C)NC(=O)[C@H](Cc1c[nH]c2ccccc12)NC(=O)[C@H](C)NC(=O)[C@@H](NC(=O)[C@H](Cc1ccccc1)NC(=O)[C@H](CCC(=O)O)NC(=O)[C@H](CCCNC(=N)N)NC(=O)[C@@H](NC(=O)[C@H](C)NC(=O)[C@H](CCC(N)=O)NC(=O)[C@H](CCC(=O)O)NC(=O)[C@H](CCC(=O)O)NC(=O)[C@H](CC(C)C)NC(=O)[C@H](Cc1ccc(O)cc1)NC(=O)[C@H](CO)NC(=O)[C@H](CO)NC(=O)[C@@H](NC(=O)[C@@H](N)CC(=O)O)C(C)C)C(C)C)[C@@H](C)CC)C(C)C)C(N)=O)C(=O)O)C(=O)O` [compound 60] (H-DVSSYLEEQAVREFIAWLVKGGPSSGAPPPSK([AEEA-γGlu-γGlu-AEEA-Palmitoyl])-NH2; N-terminus assumed), the IC50 on GLP-1R (setting [1]) turned out to be 5 nM. Besides, the solubility in “Solubility in buffer” (setting [2]) is > 25 mg/mL.

For the origin of these results see US20240058422A1, “GLUCAGON-LIKE PEPTIDE-1 RECEPTOR ANTAGONISTS” (INDIANA UNIVERSITY RESEARCH AND TECHNOLOGY CORPORATION, priority 2022, published 2024).
